{"source": "patent US11939361B2", "about": "“Compositions of peptide inhibitors of Interleukin-23 receptor” (Janssen Pharmaceutica NV, priority 2020, dated 2024)", "key": {"[1]": {"tested_on": "IL-23-induced IL-17A secretion", "test": "In vitro rat whole blood assay of IL-23-induced IL-17A secretion", "format": "cell-based"}, "[2]": {"tested_on": "IL-23 induced expression of IL-17A, IL-17F, and IL-22", "test": "Rat skin gene expression downstream of intradermal IL-23", "format": "in vivo, Sprague-Dawley rats", "experimental": "Ear inflammation was induced in Sprague-Dawley rats by daily intradermal injection of recombinant rat IL-23 on study days 0-3. Treatment with the peptide of SEQ ID NO: 1 (dose response by oral gavage; 1, 3, 10, 30, 100, and 300 mg/kg, twice a day) was initiated prophylactically starting one day prior to and continued through day 3 after induction of inflammation. All rats were humanely euthanized on day 4. An anti-IL-23 monoclonal antibody (administered intraperitoneally on days −1 and day 3) was included in all studies as a positive control and comparator.\nTest article was dissolved into phosphate buffer at the appropriate concentrations and aliquoted for each dose and stored at 4° C. Retentions of each dose formulation were obtained after the initial preparation and following the final dose on day 3 into Eppendorf tubes and stored at −80° C. for bioanalysis of test article by LCMS.\nRecombinant rat IL-23 was diluted with PBS to a concentration of 75 μg/mL, divided into 2.0 mL aliquots, and stored at −80° C. Daily from day 0 through day 3, rats were anesthetized with isoflurane and IL-23 was intradermally injected (i.d.) into the right ear (1.5 μg in a volume of 20 μL). In the control group, 20 μL of PBS was injected.\nStarting the morning prior to IL-23 injection through the evening of day 3, rats were dosed with either vehicle (phosphate buffer) or the peptide of SEQ ID NO: 1 compound twice daily (approximately 10 hours apart between doses during the day) by oral gavage (p.o.) in a volume of 5 mL/kg. In one experiment, the peptide of SEQ ID NO: 1 was also administered subcutaneously (s.c.) in a volume of 5 mL/kg.\nAnti-IL-23p19 antibody or isotype antibody was administered via intraperitoneal injection (i.p.) in a volume of 5 mL/kg on days −1 and 3.\nAt the end of the study, four days after induction with IL-23 (approximately 16 hours after the evening dose on day 3), animals were euthanized by CO2 asphyxiation. The ear tissue was weighed, snap frozen, and stored at −80° C. for gene expression analysis of inflammatory genes (IL-22, IL-17A, IL-17F, TNF). […]"}, "[3]": {"tested_on": "rat trinitrobenzenesulfonic acid (TNBS)-induced colitis model", "test": "Rat TNBS-induced colitis model, efficacy", "format": "in vivo, Sprague-Dawley rats", "description": "Intracolonic TNBS instillation in Sprague-Dawley rats induces colonic inflammation driven in part by IL-23/IL-23R signaling (Cheng X, Taranath R, Mattheakis L, Bhandari A, Liu D. The biomarker profile of PTG-200, an oral peptide antagonist of IL-23 receptor, tracks with efficacy in a preclinical model of IBD. J Crohns Colitis. AGA Abstracts, 2017). The TNBS rat model therefore provides a measure of the local GI effects of SEQ ID NO: 1 on IL-23/IL-23R signaling.\nThe peptide of SEQ ID NO: 1 was evaluated in the rat TNBS model with oral dosing only, three times a day (0.03, 0.1, 0.3, 1, 3, 10, mg/kg/day), in three independent rat TNBS experiments. In all studies, the peptide of SEQ ID NO: 1 was dosed starting 2 days prior to TNBS induction through day 6, with euthanasia scheduled on day 7.\nDisease severity resulting from TNBS can be assessed by qualitative scoring of the formation of strictures, adhesions, ulceration, and increase in wall thickness as described previously. […] Based on this qualitative scoring, the peptide of SEQ ID NO: 1 at 0.1 mg/kg/day was considered to be the minimally efficacious dose for colonic score (FIG. 13).\nData from 3 different studies were combined (represented by shapes of the symbols at each dose level: study 1 (Δ), study 2 (♦), study 3 (∘); box at interquartile range, bars at minima/maxima). The colons were scored on the following parameters: adhesion (0-2), stricture (0-3), ulcer (0-5), and wall thickness (0-2) for a total sum component score range of 0-12. The colon score was reduced by treatment with the peptide of SEQ ID NO: 1 at doses of […] (ns=not significant, * p<0.05, *** p<0.001, **** p<0.0001)."}, "[4]": {"tested_on": "IL-23 induced IFNγ production", "test": "Ex vivo whole blood IL-23-induced IFNγ production assay, FIH MAD cohorts", "format": "in vivo", "experimental": "An ex vivo whole blood IL-23 induced IFNγ assay was used to evaluate the systemic pharmacodynamic activity of the orally administered peptide of SEQ ID NO: 1 in the first-in-human study. […] On Days 1 and 10, when the assay was performed, subjects received their dose of placebo or peptide of SEQ ID NO: 1 following an overnight fast of approximately 10 hours and remained fasted for approximately 4 hours following dosing. After oral dosing on days 1 and 10, whole blood from the subjects was stimulated ex vivo with either IL-2 (10 ng/mL) and IL-18 (20 ng/mL) or IL-2 (10 ng/mL), IL-18 (20 ng/mL), and IL-23 (0.5 ng/mL) in TruCulture™ tubes (Rules Based Medicine, Q^2 solutions company) for stimulation of IFNγ production. The production of IFNγ is expected to be suppressed if IL-23R signaling is inhibited. Therefore, lower IFNγ production in the assay is associated with sufficient exposure to achieve systemic pharmacodynamic (PD) activity of orally dosed peptide of SEQ ID NO: 1.\nWhole blood was collected in TruCulture™ tubes according to manufacturer instructions, the tubes were incubated at 37° C. in a block thermostat for 24 hours (±1 hour). Following incubation at 37° C., supernatants were harvested according to TruCultube™ tube manufacturer instructions (Rules Based Medicine, Q^2 solutions company). An ELISA assay was used to quantify the levels of IFNg in the supernatants."}, "[5]": {"conditions": "human, 25 mg, 100 mg, 300 mg and 1000 mg cohorts, oral once a day"}}, "note": "Several values for one entry are separate records, joined by “and”; a condition that tells them apart may be missing. Equal values may be shown once. Read-outs that look alike come from different tables or passages of the source.", "data": [{"smiles": "CC(=O)NCCCC[C@@H]1NC(=O)[C@H](Cc2c[nH]c3c(C)cccc23)NC(=O)[C@H]([C@@H](C)O)NC(=O)[C@H](CC(N)=O)NC(=O)[C@@H](NC(C)=O)C(C)(C)SSC(C)(C)[C@@H](C(=O)N[C@@H](Cc2ccc(OCCN)cc2)C(=O)N[C@@H](Cc2ccc3ccccc3c2)C(=O)NC2(C(=O)N[C@@H](CCC(=O)O)C(=O)N[C@@H](CC(N)=O)C(=O)N[C@@H](Cc3cccnc3)C(=O)N(C)CC(N)=O)CCOCC2)NC1=O", "note": "[SEQ ID NO: 1, Ac-[Pen]*—N-T-[W(7-Me)]-[Lys(Ac)]-[Pen]*-Phe[4-(2-aminoethoxy)]-[2-Nal]-[THP]-E-N-[3-Pal]-Sarc-NH2]", "values": [{"measurement": "IC50", "setting": "[1]; read-out: IC50 at 4 ng/mL IL-23 stimulation, individual vehicle-dosed rats, plus 4 ng/mL IL-1β, listed as peptide of SEQ ID NO: 1", "result": "0.012 nM and 0.027 nM and 0.045 nM and 0.013 nM and 0.06 nM and 0.066 nM"}, {"measurement": "IC50", "setting": "[1]; read-out: IC50 at 4 ng/mL IL-23 stimulation, pooled blood (n = 6 naïve rats), plus 4 ng/mL IL-1β, listed as peptide of SEQ ID NO: 1", "result": "0.1 nM and 0.11 nM"}, {"measurement": "IC50", "setting": "[1]; read-out: IC50 at 20 ng/mL IL-23 stimulation, individual vehicle-dosed rats, listed as peptide of SEQ ID NO: 1", "result": "0.24 nM and 0.16 nM and 0.22 nM and 0.23 nM and 0.34 nM and 0.29 nM"}, {"measurement": "IC50", "setting": "[1]; read-out: Mean IC50 at 4 ng/mL IL-23 stimulation, in vitro rat whole blood, mean of all experiments", "result": "0.054 ± 0.034", "unit": "nM"}, {"measurement": "IC50", "setting": "[1]; read-out: Mean IC50 at 20 ng/mL IL-23 stimulation, in vitro rat whole blood, n=6 rats", "result": "0.25 ± 0.062", "unit": "nM"}, {"measurement": "median IL-17A expression in skin", "setting": "[2]; all tested doses (1-300 mg/kg b.i.d., oral)", "result": "reduced"}, {"measurement": "reduction of median IL-17A expression in skin", "setting": "[2]; doses of 10 mg/kg (b.i.d.) or higher", "result": "comparable degree as anti-IL-23 antibody"}, {"measurement": "IL-23 induced expression of IL-17A, IL-17F, and IL-22 in skin", "setting": "[2]; oral, 1-300 mg/kg b.i.d., days -1 to 3, dose dependent", "result": "attenuated"}, {"measurement": "TNBS-induced weight loss", "setting": "[3]; 0.03, 0.1, 0.3, 1, 3, and 10 mg/kg/day, all 3 studies", "result": "prevented and reversed"}, {"measurement": "minimally efficacious dose, body weight", "setting": "[3]; day 7 as the study endpoint", "result": 0.3, "unit": "mg/kg/day"}, {"measurement": "minimal efficacious dose, TNBS-induced colitis model (summary)", "setting": "[3]; rat, in vivo", "result": 0.3, "unit": "mg/kg/day"}, {"measurement": "minimally efficacious dose, colonic score", "setting": "[3]; rat, in vivo", "result": 0.1, "unit": "mg/kg/day"}, {"measurement": "inhibition of IL-23 stimulated IFNγ production in human whole blood", "setting": "[4]; 10-1000 mg oral once a day, Day 1 and Day 10", "result": "dose dependent inhibition"}, {"measurement": "maximum inhibition of IL-23 induced IFNγ production (mean systemic PD activity)", "setting": "[4]; [5]", "result": "~100", "unit": "%"}, {"measurement": "time for which >50% inhibition of IFNγ production was maintained", "setting": "[4]; [5]", "result": "≥ 8", "unit": "h"}]}]}
